Measurements from ChEMBL document CHEMBL1201862, “PubChem BioAssay data set” (2004).
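Each compound was tested at five concentrations against cells in 96-well plates for 48 hours. At the GI50, growth is halved.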 Activity calls are given as the source filed them. Cut-off read from the data, not from the text of the source: active = GI50 up to about 1.1 µM and inactive = higher.

Key:
Test in all cases: DTP human tumour cell line panel, 48 h
[1] = test system: NCI-H460
[2] = test system: SF-539
[3] = test system: ACHN
[4] = test system: UACC-62
[5] = test system: CCRF-CEM
[6] = test system: SNB-19
[7] = test system: 786-0
[8] = test system: HL-60
[9] = test system: SK-MEL-28
[10] = test system: SK-MEL-5
[11] = test system: IGROV-1
[12] = test system: HCC 2998
[13] = test system: OVCAR-3
[14] = test system: SNB-75
[15] = test system: KM12
[16] = test system: NCI-H226
[17] = test system: OVCAR-5

SMILES: Cn1nc(-c2ccccc2)c(C(=O)/C=C/c2ccc(Cl)cc2)c(N2CCOCC2)c1=O
- GI50 [1]: 2.64 µM (inactive)
- GI50 [2]: 2.5 µM (inactive)
- GI50 [3]: 4.42 µM (inactive)
- GI50 [4]: 3.27 µM (inactive)
- GI50 [5]: 2.45 µM (inactive)
- GI50 [6]: 14.3 µM (inactive)
- GI50 [7]: 2.87 µM (inactive)
- GI50 [8]: 1.85 µM (inactive)
- GI50 [9]: 2.58 µM (inactive)
- GI50 [10]: 4.98 µM (inactive)
- GI50 [11]: 4.22 µM (inactive)

SMILES: CN(C(=O)C12C3C4C1C1C2C3C41C(=O)N(C)C(C)(C)C)C(C)(C)C (configuration not stated)
- GI50 [2]: > 50 µM (inactive)
- GI50 [3]: > 50 µM (inactive)
- GI50 [4]: > 50 µM (inactive)
- GI50 [5]: > 50 µM (inactive)
- GI50 [6]: > 50 µM (inactive)
- GI50 [12]: > 50 µM (inactive)
- GI50 [7]: > 50 µM (inactive)
- GI50 [13]: > 50 µM (inactive)
- GI50 [14]: 21.6 µM (inactive)
- GI50 [8]: > 50 µM (inactive)
- GI50 [9]: > 50 µM (inactive)
- GI50 [10]: > 50 µM (inactive)
- GI50 [11]: > 50 µM (inactive)

SMILES: CC1(C)CC(/C=C2/OC(=O)c3ccccc32)=C(C(N)=O)C(=O)O1
- GI50 [1]: > 100 µM (inactive)
- GI50 [2]: > 100 µM (inactive)
- GI50 [15]: > 100 µM (inactive)
- GI50 [4]: > 100 µM (inactive)
- GI50 [5]: > 100 µM (inactive)
- GI50 [6]: > 100 µM (inactive)
- GI50 [12]: > 100 µM (inactive)
- GI50 [7]: > 100 µM (inactive)
- GI50 [13]: > 100 µM (inactive)
- GI50 [14]: > 100 µM (inactive)
- GI50 [16]: > 100 µM (inactive)
- GI50 [9]: > 100 µM (inactive)
- GI50 [17]: > 100 µM (inactive)
- GI50 [10]: > 100 µM (inactive)
- GI50 [11]: > 100 µM (inactive)

SMILES: CN(C)CCNC(=O)c1cccc2nc3cc(Cl)ccc3nc12
- GI50 [2]: 3.12 µM (inactive)
- GI50 [3]: 1.02 µM (active)
- GI50 [15]: 2.51 µM (inactive)
- GI50 [4]: 3.69 µM (inactive)
- GI50 [6]: 3.4 µM (inactive)
- GI50 [12]: 2.65 µM (inactive)
- GI50 [7]: 3.79 µM (inactive)
- GI50 [13]: 2.17 µM (inactive)
- GI50 [14]: 2.52 µM (inactive)
- GI50 [8]: 3.32 µM (inactive)
- GI50 [16]: 1.64 µM (inactive)
- GI50 [9]: 2.9 µM (inactive)
- GI50 [17]: 3.05 µM (inactive)
- GI50 [10]: 3.19 µM (inactive)
- GI50 [11]: 5.25 µM (inactive)

SMILES: N#CC(C(=O)CCCC(=O)Nc1ccc(Cl)cc1Cl)c1ccc(Cl)cc1 (configuration not stated)
- GI50 [1]: > 100 µM (inactive)
- GI50 [2]: > 100 µM (inactive)
- GI50 [3]: > 100 µM (inactive)
- GI50 [15]: > 100 µM (inactive)
- GI50 [4]: > 100 µM (inactive)
- GI50 [6]: > 100 µM (inactive)
- GI50 [12]: > 100 µM (inactive)
- GI50 [7]: > 100 µM (inactive)
- GI50 [13]: > 100 µM (inactive)
- GI50 [14]: > 100 µM (inactive)
- GI50 [8]: > 100 µM (inactive)
- GI50 [16]: > 100 µM (inactive)
- GI50 [9]: > 100 µM (inactive)
- GI50 [17]: > 100 µM (inactive)
- GI50 [11]: > 100 µM (inactive)

SMILES: CC(N)Cc1ccc(C(=O)Cl)cc1 (configuration not stated)
- GI50 [1]: > 100 µM (inactive)
- GI50 [2]: > 100 µM (inactive)
- GI50 [3]: > 100 µM (inactive)
- GI50 [15]: > 100 µM (inactive)
- GI50 [4]: > 100 µM (inactive)
- GI50 [5]: > 100 µM (inactive)
- GI50 [12]: > 100 µM (inactive)
- GI50 [7]: > 100 µM (inactive)
- GI50 [13]: > 100 µM (inactive)
- GI50 [14]: > 100 µM (inactive)
- GI50 [9]: > 100 µM (inactive)
- GI50 [10]: > 100 µM (inactive)
- GI50 [11]: > 100 µM (inactive)

SMILES: CN(C)C(=S)/N=c1\ss/c(=N\S(=O)(=O)c2ccccc2)n1C
- GI50 [1]: > 100 µM (inactive)
- GI50 [2]: > 100 µM (inactive)
- GI50 [3]: > 100 µM (inactive)
- GI50 [15]: > 100 µM (inactive)
- GI50 [4]: > 100 µM (inactive)
- GI50 [5]: > 100 µM (inactive)
- GI50 [6]: > 100 µM (inactive)
- GI50 [12]: > 100 µM (inactive)
- GI50 [7]: > 100 µM (inactive)
- GI50 [14]: 39.2 µM (inactive)
- GI50 [8]: > 100 µM (inactive)
- GI50 [16]: > 100 µM (inactive)
- GI50 [9]: > 100 µM (inactive)
- GI50 [17]: > 100 µM (inactive)
- GI50 [10]: > 100 µM (inactive)
- GI50 [11]: > 100 µM (inactive)

SMILES: Nc1ccn(CCOC(=O)c2ccccc2)c(=O)n1
- GI50 [1]: > 100 µM (inactive)
- GI50 [2]: > 100 µM (inactive)
- GI50 [3]: > 100 µM (inactive)
- GI50 [15]: > 100 µM (inactive)
- GI50 [4]: > 100 µM (inactive)
- GI50 [5]: > 100 µM (inactive)
- GI50 [7]: > 100 µM (inactive)
- GI50 [13]: > 100 µM (inactive)
- GI50 [14]: > 100 µM (inactive)
- GI50 [8]: > 100 µM (inactive)
- GI50 [16]: > 100 µM (inactive)
- GI50 [9]: > 100 µM (inactive)
- GI50 [17]: > 100 µM (inactive)
- GI50 [10]: > 100 µM (inactive)
- GI50 [11]: > 100 µM (inactive)

SMILES: Nc1ncnc2c1ncn2C1OC(CSCC(F)(F)F)C(O)C1O (configuration not stated)
- GI50 [1]: > 100 µM (inactive)
- GI50 [2]: > 100 µM (inactive)
- GI50 [3]: > 100 µM (inactive)
- GI50 [15]: > 100 µM (inactive)
- GI50 [4]: > 100 µM (inactive)
- GI50 [6]: > 100 µM (inactive)
- GI50 [12]: > 100 µM (inactive)
- GI50 [7]: > 100 µM (inactive)
- GI50 [13]: > 100 µM (inactive)
- GI50 [14]: > 100 µM (inactive)
- GI50 [8]: > 100 µM (inactive)
- GI50 [16]: > 100 µM (inactive)
- GI50 [9]: > 100 µM (inactive)
- GI50 [17]: > 100 µM (inactive)
- GI50 [10]: > 100 µM (inactive)
- GI50 [11]: > 100 µM (inactive)

SMILES: CCOC(=O)N1C(c2ccccc2)C=CC(c2ccccc2)N1C(=O)OCC (configuration not stated)
- GI50 [1]: > 100 µM (inactive)
- GI50 [2]: > 100 µM (inactive)
- GI50 [3]: > 100 µM (inactive)
- GI50 [15]: > 100 µM (inactive)
- GI50 [4]: > 100 µM (inactive)
- GI50 [5]: > 100 µM (inactive)
- GI50 [6]: > 100 µM (inactive)
- GI50 [7]: > 100 µM (inactive)
- GI50 [13]: > 100 µM (inactive)
- GI50 [14]: 42.9 µM (inactive)
- GI50 [9]: > 100 µM (inactive)
- GI50 [17]: > 100 µM (inactive)
- GI50 [10]: > 100 µM (inactive)
- GI50 [11]: > 100 µM (inactive)

SMILES: O=C(O)CNc1c2ccccc2[n+]([O-])c2ccccc12
- GI50 [1]: > 100 µM (inactive)
- GI50 [3]: 65.5 µM (inactive)
- GI50 [15]: > 100 µM (inactive)
- GI50 [4]: 67.8 µM (inactive)
- GI50 [5]: 21.2 µM (inactive)
- GI50 [6]: > 100 µM (inactive)
- GI50 [12]: > 100 µM (inactive)
- GI50 [7]: > 100 µM (inactive)
- GI50 [13]: > 100 µM (inactive)
- GI50 [14]: 76.2 µM (inactive)
- GI50 [8]: 18.7 µM (inactive)
- GI50 [16]: > 100 µM (inactive)
- GI50 [9]: 42.2 µM (inactive)
- GI50 [17]: > 100 µM (inactive)
- GI50 [10]: 45.5 µM (inactive)
- GI50 [11]: > 100 µM (inactive)

SMILES: CC(C)(C)c1ccnc(/N=C2\N/C(=N\c3cc(C(C)(C)C)ccn3)c3ccccc32)c1
- GI50 [1]: 38.7 µM (inactive)
- GI50 [2]: 67.1 µM (inactive)
- GI50 [3]: > 100 µM (inactive)
- GI50 [15]: 41.8 µM (inactive)
- GI50 [4]: 50.1 µM (inactive)
- GI50 [5]: 59.4 µM (inactive)
- GI50 [6]: 22.2 µM (inactive)
- GI50 [7]: 19.3 µM (inactive)
- GI50 [13]: 17.8 µM (inactive)
- GI50 [14]: > 100 µM (inactive)
- GI50 [8]: 36.3 µM (inactive)
- GI50 [16]: > 100 µM (inactive)
- GI50 [9]: 24.4 µM (inactive)
- GI50 [17]: > 100 µM (inactive)
- GI50 [11]: 23.1 µM (inactive)

SMILES: CN1C(=O)C2C3C=C4c5ccccc5N(c5ccccc5)C4(C2C1=O)[C@H]1C(=O)N(C)C(=O)[C@@H]31 (some centres not stated)
- GI50 [1]: > 100 µM (inactive)
- GI50 [3]: > 100 µM (inactive)
- GI50 [15]: > 100 µM (inactive)
- GI50 [4]: > 100 µM (inactive)
- GI50 [5]: > 100 µM (inactive)
- GI50 [6]: > 100 µM (inactive)
- GI50 [12]: > 100 µM (inactive)
- GI50 [7]: > 100 µM (inactive)
- GI50 [13]: > 100 µM (inactive)
- GI50 [14]: > 100 µM (inactive)
- GI50 [8]: > 100 µM (inactive)
- GI50 [16]: > 100 µM (inactive)
- GI50 [9]: > 100 µM (inactive)
- GI50 [17]: > 100 µM (inactive)

SMILES: CC1(C)C2CCC13CS(=O)(=O)N1O[C@]13C(=O)O2 (some centres not stated)
- GI50 [1]: > 100 µM (inactive)
- GI50 [2]: > 100 µM (inactive)
- GI50 [3]: > 100 µM (inactive)
- GI50 [15]: > 100 µM (inactive)
- GI50 [6]: > 100 µM (inactive)
- GI50 [12]: > 100 µM (inactive)
- GI50 [7]: > 100 µM (inactive)
- GI50 [13]: > 100 µM (inactive)
- GI50 [14]: 60.8 µM (inactive)
- GI50 [8]: > 100 µM (inactive)
- GI50 [16]: > 100 µM (inactive)
- GI50 [9]: > 100 µM (inactive)
- GI50 [17]: > 100 µM (inactive)
- GI50 [11]: > 100 µM (inactive)
